In brackets after ≈: the same amount, converted by molar mass.
What was measured:
Assay type in all cases: cell-based
[1] = tested on: human umbilical-vein endothelial cells (HUVEC); experiment: Cell Migration Assay (CMA) Test, HUVEC (% relative to control); details: 24 hours, 60% or less = remarkable inhibition; for activity at 1 µg/mL / activity at 10 µg/mL: Homo sapiens, HUVEC, read-out: CMA (% relative to control)
Summary of the method: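 Confluent 7th-subculture HUVEC monolayers scraped with razor blade, then given M199 (2+) plus 40 or 4 μl of 1 mg/ml sample (in 5% DMSO-PBS) per 4.0 ml medium for 24 h at 37 °C. Methanol-fixed, Giemsa-stained; newly migrated cells counted microscopically in 1 mm×1 mm blocks, expressed versus M199 (2+) control.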

[2] = tested on: human umbilical-vein endothelial cells (HUVEC); experiment: Tube Formation Assay (TFA) Test, HUVEC in collagen gel; details: 20 hours, 40% or less judged remarkable; for inhibition at 1 µg/mL / inhibition at 10 µg/mL: Homo sapiens, HUVEC, 20 h, read-out: TFA (inhibition rate, %)
Summary of the method: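 HUVEC (7th subculture, 1×10^5 cells/ml) attached to collagen gel for 2 h at 37 °C, given sample and overlaid with collagen, then cultured 20 h at 37 °C, 5% CO2 in M-199 with 20% FCS, 30 ng/ml b-FGF and 0.1 μM PMA. Tube length measured by image analysis; % inhibition relative to positive and negative controls.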

[3] = tested on: human umbilical-vein endothelial cells (HUVEC); experiment: Cell Proliferation Assay (CPA) Test, HUVEC, MTT; details: M199 (2+) medium; for IC50: Homo sapiens, read-out: CPA (IC50 μg/ml)
Summary of the method: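 HUVEC (7th subculture) seeded at 5×10^4 cells/ml in M-199 with 20% FCS, 10 ng/ml b-FGF and 10 ng/ml EGF, grown 24 h at 37 °C, 5% CO2. Compounds added from 1 mg/ml or 0.1 mg/ml samples in 5% DMSO-PBS(−), renewed with medium after 24 h, then cultured 48 h more. Read-out by MTT with 4 h incubation and SDS/HCl stop.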

COC(=O)C1=CO[C@@H](OC(=O)NC(C)C)[C@@H]2[C@@H]1C[C@@H]1O[C@]21C [compound 34, (1S,4aS,6S,7R,7aR)-6,7-epoxy-1,4a,5,6,7,7a-hexahydro-1-(isopropylcarbamoyloxy)-7-methylcyclopenta [c] pyrane-4-carboxylic acid methylester]
activity at 1 µg/mL ([1]; 1 μg/ml): 98.2% | activity at 10 µg/mL ([1]; 10 μg/ml): 95.2% | inhibition at 1 µg/mL ([2]; 1 μg/ml): 16.8% | inhibition at 10 µg/mL ([2]; 10 μg/ml): -14.1% | IC50 [3]: > 100 µg/mL

CNC(=O)OC=C(C(=O)OC)[C@@H]1CC[C@]2(C)O[C@@]12CO [compound 54, 2-[(1S,2R,3S)-2,3-epoxy-2-(hydroxymethyl)-3-methyl-2-cyclopentyl]-3-[(methylcarbamoyl)oxy] methylacrylate]
CMA (% relative to control) ([1]; 1 μg/ml): 90.5% | CMA (% relative to control) ([1]; 10 μg/ml): 86.2% | TFA (inhibition rate, %) ([2]; 1 μg/ml): -8.6% | TFA (inhibition rate, %) ([2]; 10 μg/ml): -12.2% | CPA (IC50 μg/ml) [3]: > 100.0 µg/mL

C=CCCOC(=O)C1=CO[C@@H](OC(=O)NC)[C@@H]2[C@@H]1C[C@@H]1O[C@]21C [compound 8, (1S,4aS,6S,7R,7aR)-6,7-epoxy-1,4a,5,6,7,7a-hexahydro-7-methyl-1-(methylcarbamoyloxy) cyclopenta [c]-pyrane-4-carboxylic acid 3-butenylester]
activity at 1 µg/mL ([1]; 1 μg/ml): 75.4% | activity at 10 µg/mL ([1]; 10 μg/ml): 60.5% | inhibition at 1 µg/mL ([2]; 1 μg/ml): 27.3% | inhibition at 10 µg/mL ([2]; 10 μg/ml): 93.2% | IC50 [3]: 60.5 µg/mL (≈ 187 µM)

COC(=O)C1=COC(OC(=O)N(C)C)C2C1CC1OC12C (stereo not drawn) [compound 31]
activity at 1 µg/mL ([1]; 1 μg/ml): 97.2% | activity at 10 µg/mL ([1]; 10 μg/ml): 107% | inhibition at 1 µg/mL ([2]; 1 μg/ml): 15.2% | inhibition at 10 µg/mL ([2]; 10 μg/ml): 26.5% | IC50 [3]: > 100 µg/mL

CNC(=O)O[C@@H]1OC=C(C(=O)OC)[C@H]2CC[C@@]3(CO3)[C@@H]12 [compound 52, (1S,4aS,7R,7aR)-1-(methylcarbamoyloxy)-1,4a,5,6,7,7a-hexahydrospiro [cyclopenta [c]pyrane-7(1H),2'-oxirane]-4-carboxylic acid methylester]
activity at 1 µg/mL ([1]; 1 μg/ml): 101% | activity at 10 µg/mL ([1]; 10 μg/ml): 103% | inhibition at 1 µg/mL ([2]; 1 μg/ml): 21.7% | inhibition at 10 µg/mL ([2]; 10 μg/ml): -6.5% | IC50 [3]: > 100 µg/mL

CNC(=O)OC1OC=C(C(=O)N(C)C)C2CC3OC3(C)C12 (stereo not drawn) [compound 18]
activity at 1 µg/mL ([1]; 1 μg/ml): 90.3% | activity at 10 µg/mL ([1]; 10 μg/ml): 71.5% | inhibition at 1 µg/mL ([2]; 1 μg/ml): 28.6% | inhibition at 10 µg/mL ([2]; 10 μg/ml): 27.7% | IC50 [3]: > 100 µg/mL

COC(=O)C1=COC(OC(=O)Nc2cccc3ccccc23)C2C1CC1OC12C [compound 37, (1S, 4aS,6S,7R,7aR)-6,7-epoxy-1,4a,5,6,7,7a-hexahydro-7-methyl-1-[(1-naphtyl)carbamoyloxy] cyclopenta [c] pyrane-4-carboxylic acid methylester]
activity at 1 µg/mL ([1]; 1 μg/ml): 102% | activity at 10 µg/mL ([1]; 10 μg/ml): 88.6% | inhibition at 1 µg/mL ([2]; 1 μg/ml): 14.1% | inhibition at 10 µg/mL ([2]; 10 μg/ml): 22.6% | IC50 [3]: > 100 µg/mL

CNC(=O)O[C@@H]1OC=C(C(=O)OC)[C@H]2CC[C@]3(CO3)[C@@H]12 [compound 53, (1S,4aS,7S,7aR)-1-(methylcarbamoyloxy)-1,4a,5,6,7,7a-hexahydrospiro [cyclopenta [c]pyrane-7(1H),2'-oxirane]-4-carboxylic acid methylester]
activity at 1 µg/mL ([1]; 1 μg/ml): 100% | activity at 10 µg/mL ([1]; 10 μg/ml): 94.1% | inhibition at 1 µg/mL ([2]; 1 μg/ml): 26% | inhibition at 10 µg/mL ([2]; 10 μg/ml): 9.7% | IC50 [3]: > 100 µg/mL

CNC(=O)OC[C@@H]1[C@@H](C)CC[C@@H]1C1(COC(=O)NC)CO1 (stereo partly drawn) [Compound 59, 2-[(1S,2R,3S)-2-(methylcarbamoyloxy)methyl-3-methylcyclopento-1-yl]-2,3-epoxy-propane-1-methylcarbamate]
CMA (% relative to control) ([1]; 1 μg/ml): 99.3% | CMA (% relative to control) ([1]; 10 μg/ml): 92.5% | TFA (inhibition rate, %) ([2]; 1 μg/ml): 5.9% | TFA (inhibition rate, %) ([2]; 10 μg/ml): -4.5% | CPA (IC50 μg/ml) [3]: > 100.0 µg/mL

CNC(=O)O[C@@H]1OC=C(C(=O)O)[C@H]2C[C@@H]3O[C@]3(C)[C@H]12 [compound 1, (1S,4aS,6S,7R,7aR)-6,7-epoxy-1,4a,5,6,7,7a-hexahydro-7-methyl-1-(methylcarbamoyloxy) cyclopenta [c]-pyrane-4-carboxylic acid]
activity at 1 µg/mL ([1]; 1 μg/ml): 98.5% | activity at 10 µg/mL ([1]; 10 μg/ml): 93.5% | inhibition at 1 µg/mL ([2]; 1 μg/ml): 49.8% | inhibition at 10 µg/mL ([2]; 10 μg/ml): 37.8% | IC50 [3]: > 100 µg/mL

CNC(=O)O[C@@H]1OC=C(C(=O)Oc2ccccc2)[C@H]2C[C@@H]3O[C@]3(C)[C@H]12 [compound 13, (1S,4aS,6S,7R,7aR)-6,7-epoxy-1,4a,5,6,7,7a-hexahydro-7-methyl-1-(methylcarbamoyloxy) cyclopenta [c]-pyrane-4-carboxylic acid phenylester]
activity at 1 µg/mL ([1]; 1 μg/ml): 94.1% | activity at 10 µg/mL ([1]; 10 μg/ml): 94% | inhibition at 1 µg/mL ([2]; 1 μg/ml): 36.3% | inhibition at 10 µg/mL ([2]; 10 μg/ml): 36.8% | IC50 [3]: 53.3 µg/mL (≈ 154 µM)

CNC(=O)OC1OC=C(C(=O)N2CCCC2)C2CC3OC3(C)C12 [compound 25, (1S,4aS,6S,7R,7aR)-6,7-epoxy-1,4a,5,6,7,7a-hexahydro-7-methyl-1-(methylcarbamoyloxy) cyclopenta [c]-pyrane-4-carboxylic acid pyrrolidylamide]
activity at 1 µg/mL ([1]; 1 μg/ml): 91.8% | activity at 10 µg/mL ([1]; 10 μg/ml): 87.5% | inhibition at 1 µg/mL ([2]; 1 μg/ml): 31.8% | inhibition at 10 µg/mL ([2]; 10 μg/ml): 14.5% | IC50 [3]: > 100 µg/mL

Source: patent publication US6225478A, “Iridoid derivatives and neovascularization inhibitors containing the same as active ingredient” (Tsumura & Co., priority 1999, dated 2001)
